Results reported in paper PMC10968976, “Targeting CDK9 in Cancer: An Integrated Approach of Combining In Silico Screening with Experimental Validation for Novel Degraders” (Current Issues in Molecular Biology, 2024).
Where two headings read alike, the source gives them in different places.

How the values were obtained:
[1] = tested on: NCI-H358 cells; assay: Cell viability (cell-titer-glo), NCI-H358; type: cell-based; details: Homo sapiens, NIH H-358 cell line, 48 to 72 h, read-out: Estimated EC50
Procedure: (§1) The cell lines used in this study were purchased from ATCC (https://www.atcc.org, accessed on 18 December 2023) and maintained under standard conditions at 37 °C with a 5% CO2 atmosphere. NCI-H-358 cells were cultivated in 1X RPMI 1640 medium, while MIA-PaCa2 cells were cultured using 1X DMEM. Both culture media were supplemented with 10% fetal bovine serum and 1X Penicillin/Streptomycin (Gibco). For culturing the Melma-3M cells, IMDM media fortified with 20% fetal bovine serum and 1X Penicillin/Streptomycin was used. […]
(§2) Briefly, for cell viability experiments, after splitting, cells from each respective cell line were plated onto 96-well plates (MSP, Cat # CT-229185) at a density of about 1 × 10^4 cells/mL and 200 µL per well using the appropriate cell culture media after about 24 h at 37 °C, the cell media in each 96-well plate were replaced with media containing the various test compounds at varying concentrations. […] Each plate was gently mixed for ca. 10 min at room temperature and then transferred to a plate reader (Bio-Tek, Synergy HTX, Winooski, VT, USA, multimode reader) for chemiluminescence measurement as a proportional indicator of cell viability.
(§3) TB003 and TB008 have also been evaluated for cell growth inhibition and killing using two cell lines, NCI-H358, a non-small cell lung carcinoma-derived cell line, and MIA-PaCa-2, a pancreatic carcinoma-derived cell line. […]

[2] = tested on: MIA-PaCa-2 cells; assay: Cell viability (cell-titer-glo), MIA-PaCa-2; type: cell-based; details: MIA-PaCa 2 cell line, 48 to 72 h, read-out: Estimated EC50
Procedure: as §1, §2, §3

Row | EC50 [1] | EC50 ([2]; Homo sapiens) | SMILES | EC50 [2]
1 | 75 µM | 10 µM | CC(=O)O[C@H]1C(=O)[C@@]2(C)[C@H]([C@H](OC(=O)c3ccccc3)[C@]3(O)C[C@H](OC(=O)[C@H](O)[C@@H](NC(=O)c4ccccc4)c4ccccc4)C(C)=C1C3(C)C)[C@]1(OC(C)=O)CO[C@@H]1C[C@@H]2O [Paclitaxel, paclitaxel] | 
2 |  |  | O=C1[O][Pt]2([NH][C@@H]3CCCC[C@H]3[NH]2)[O]C1=O [Oxaliplatin, oxaliplatin] | 100 µM
